# Like-named read-outs stand apart in the source and are kept apart here.
# Experiments:
# [1] = test system: HT-29 (human colorectal adenocarcinoma) cells; assay: MTT reduction assay, antiproliferative effect, HT-29; type: cell-based; settings: for IC50: read-out: HT-29 IC50; for viability at 25 µM: cell line not named in the sentence (NA in HT-29, MCF-7, MOLT-4 in Table 1), read-out: Cell viability at the highest tested concentration
# Description: (§1) Fetal bovine serum (FBS), phosphate-buffered saline (PBS), RPMI-1640, and trypsin were obtained from Biosera (Ringmer, UK). Penicillin/streptomycin and MTT (3-(4,5-dimethylthiazol-2-yl)-2,5-diphenyltetrazolium bromide) were from Sigma-Aldrich (Saint Louis, MO, USA) and Invitrogen (San Diego, CA, USA), respectively. Dimethyl sulfoxide and doxorubicin were purchased from Merck (Darmstadt, Germany) and EBEWE Pharma (Unterach, Austria), respectively. The cells were acquired from Iranian Biological Resource Center, Tehran, Iran (HT-29 (human colorectal adenocarcinoma), MCF-7 (human breast adenocarcinoma) and Vero (African green monkey kidney) cells) or National Cell Bank of Iran, Pasteur Institute, Tehran, Iran (MOLT-4 (lymphoblastic leukemia) cells).
# (§2) MTT reduction assay was employed to assess the viability of cancer cells after being treated with synthesized derivatives as previously described ([34]). The cells were plated in flat-bottom 96-well microplates, at densities of 3 × 10^4 cells/mL (100 μL in each well) and then incubated overnight at 37 °C. Three to four different concentrations of synthesized derivatives (in the range of 1 to 100 μM) were placed in triplicate wells and the plates were incubated for 72 h at 37 °C. […] At the end of the incubation time, 80 μL of the media in each well was replaced with the same amount of growth medium without phenol red containing 0.5 mg/mL of MTT. Cells were further incubated at 37 °C for 4 h and then 80 μL of the solution of each well was removed. The addition of DMSO (200μL) to each well solubilized the formazan crystals formed inside the viable cells after 1-hour incubation followed by 30-minute shaking. The optical absorbance of the final solution was determined at 570 nm using a Bio-Tek multimode plate reader (Synergy HTX). The cell viability was calculated compared to untreated control cells by comparison of absorbance measurements. CurveExpert software (version 1.34 for Windows) was used to determine the IC50 value for each compound. To confirm the results, every experiment was repeated 3 to 5 times.
# [2] = test system: MCF-7 (human breast adenocarcinoma) cells; assay: MTT reduction assay, antiproliferative effect, MCF-7; type: cell-based
# Description: as §1, §2
# [3] = test system: MOLT-4 (lymphoblastic leukemia) cells; assay: MTT reduction assay, antiproliferative effect, MOLT-4; type: cell-based, human; settings: read-out: MOLT-4 IC50
# Description: as §1, §2
# [4] = test system: Vero (African green monkey kidney) cells; assay: MTT reduction assay, Vero normal cells; type: cell-based; settings: read-out: Vero IC50
# Description: as §1, §2
# [5] = Homo sapiens, MCF7, 72 h, read-out: MCF-7 IC50, MTT, 72 h incubation
# [6] = Chlorocebus sabaeus, Vero, 72 h
Compound,"IC50 ([1]; MTT, 72 h incubation) [µM]","IC50 ([2]; MTT, 72 h incubation, read-out: MCF-7 IC50) [µM]","IC50 ([3]; MTT, 72 h incubation) [µM]","IC50 ([4]; MTT, 72 h incubation, normal cells) [µM]","viability at 25 µM ([1]; Homo sapiens, MTT) [%]",melting point [°C],"IC50 ([1]; Homo sapiens, HT-29, 72 h) [µM]","IC50 [2, 5] [µM]","IC50 ([3]; Homo sapiens, MOLT-4, 72 h) [µM]","IC50 [4, 6] [µM]"
"N.N.[Cl][Pt][Cl] [Cisplatin, reference compound]",24.6 ± 3.6,8.1 ± 2.6,2.9 ± 0.2,7.8 ± 1,,,,,,
"C(=NNc1nnc2c3ccccc3c3ccccc3c2n1)c1ccccc1 [Compound 9a, 3-(2-benzylidenehydrazinyl)phenanthro [9,10-e][1,2,4]triazine]",,,,,≥ 50,286 to 290,,,,
"COc1ccccc1C=NNc1nnc2c3ccccc3c3ccccc3c2n1 [Compound 9b, 3-(2-(2-methoxybenzylidene)hydrazinyl)phenanthro[9,10-e][1,2,4]triazine]",,,,,,252 to 254,20.1 ± 3,15.2 ± 3.1,7.8 ± 1.8,13 ± 1.8
"Oc1cccc(C=NNc2nnc3c4ccccc4c4ccccc4c3n2)c1 [Compound 9e, 3-((2-(phenanthro[9,10-e][1,2,4]triazin-3-yl)hydrazono)methyl)phenol]",,,,,,219 to 223,15.2 ± 2.1,9.3 ± 1.6,4.4 ± 1.1,30 ± 6
"Oc1cccc(C=NNc2nnc3c4ccccc4c4ccccc4c3n2)c1O [Compound 9f, 3-((2-(phenanthro[9,10-e][1,2,4]triazin-3-yl)hydrazono)methyl)benzene-1,2-diol]",,,,,≥ 50,329 to 333,,,,

# Reference: publication PMC8653689, “Phenanthrotriazine Derivatives Containing Arylidine Hydrazone Moieties as Novel Potential c-Met Inhibitors with Anticancer Effect” (Iranian Journal of Pharmaceutical Research : IJPR, 2021)
